Test results as given in article PMC11324046, “Second-generation piperazine derivatives as promising radiation countermeasures” (RSC Medicinal Chemistry, 2024).
Like-named read-outs stand apart in the source and are kept apart here.

Assays:
[1] = WST-1 proliferation assay, MOLT-4; assay type: cell-based; conditions: human, MOLT-4 cells (acute lymphoblastic leukemia), vs 0.1% DMSO control = 100%, mean ± standard deviation
Description: (§1) A thorough analysis of antiproliferative activity was performed across various cell culture types representing different histotypes: leukemia (Jurkat, MOLT-4), lung adenocarcinoma (A549), colorectal adenocarcinoma (HT-29), pancreatic carcinoma (PANC-1), breast adenocarcinoma (MCF-7), osteosarcoma (SAOS-2), and one non-cancerous cell line (fetal lung fibroblasts MRC-5). The cell lines were exposed to the newly synthesized compounds at a concentration of 100 μM for 48 h in a single-dose treatment. Changes in cell proliferation compared to the vehicle 0.1% dimethyl sulfoxide (DMSO) control were determined using the WST-1 assay, which is based on mitochondrial dehydrogenase metabolic activities. […] The overall cytotoxic activity of each compound was expressed as growth percent (GP) – the mean of the proliferation of all cell lines treated with the same compound.
(§2) Selected human tumor and non-tumor cell lines Jurkat (acute T-cell leukemia), MOLT-4 (acute lymphoblastic leukemia), A549 (lung carcinoma), HT-29 (colorectal adenocarcinoma), PANC-1 (pancreas epithelioid carcinoma), MCF-7 (breast adenocarcinoma), SAOS-2 (osteosarcoma) and MRC-5 (normal lung fibroblasts) were purchased from either American Type Culture Collection (ATCC; VA, USA) or Sigma-Aldrich (St. Louis, MO, USA) and cultured according to the provider's culture method guidelines. All cell lines were maintained at 37 °C in a humidified 5% carbon dioxide and 95% air incubator. Cells in the maximum range of either 10 passages for the adherent cell lines (A549, HT-29, PANC-1, MCF-7, SAOS-2, and MRC-5), or 20 passages for suspension cell lines (Jurkat, MOLT-4,) and in an exponential growth phase were used for this study. Screening of the antiproliferative effect and growth percent calculation were conducted as follows: each cell line was seeded at previously established optimal density (1–50 × 10^3 cells per well) in a 96-well plate (TPP, Trasadingen, Switzerland) and cells were allowed to settle overnight. Cells were treated for 48 h with compounds at a final concentration of 100 μM. At the end of the cultivation period, the WST-1 proliferation assay (Roche, Basel, Switzerland) was performed according to the manufacturer's protocol. The absorbance was measured at 440 nm using a Tecan Spark multimode microplate reader (Tecan, Mannedorf, Switzerland). Each value is the mean of three independent experiments and represents the percentage of proliferation (100% cell proliferation for 0.1% DMSO mock-treated control cells). The GP value was calculated for each compound tested. GP represents the mean of the percentage proliferation decrease of all cell lines treated with the same compound.

[2] = WST-1 proliferation assay, HT-29; assay type: cell-based; conditions: human, HT-29 cells (colorectal adenocarcinoma), vs 0.1% DMSO control = 100%, mean ± standard deviation
Description: as §1, §2

[3] = WST-1 proliferation assay, Jurkat; assay type: cell-based; conditions: human, Jurkat cells (acute T-cell leukemia), vs 0.1% DMSO control = 100%, mean ± standard deviation
Description: as §1, §2

MOLT-4 cells = assay: Annexin V/PI flow cytometry viability of irradiated MOLT-4 cells; assay type: cell-based, human; conditions: 2 Gy; for viability at 100 µM / viability at 200 µM: Homo sapiens, 2 h pretreatment, 24 h
Description: (§3) Consequently, we investigated whether the pre-application of these substances can augment the survival of MOLT-4 cells after irradiation exposure. The radioprotective investigation utilized a leukemia MOLT-4 cell model of hematopoietic origin with flow cytometric quantification of cell viability via annexin V/propidium iodide staining.
(§4) In the following step, at 24 h after irradiation, MOLT-4 cell viability and cell death were determined by flow cytometry using an Alexa Fluor® 488 annexin V/Dead Cell Apoptosis kit (Life Technologies, Grand Island, NY, USA) following the manufacturer's instructions. The Alexa Fluor®488 annexin V/Dead Cell Apoptosis kit employs the property of Alexa Fluor®488 conjugated to annexin V to bind to phosphatidylserine in the presence of Ca^2+; and the ability of propidium iodide to enter cells with damaged cell membranes and bind to DNA. For each sample, a minimum of 20 000 events were acquired using a CytoFLEX LX flow cytometer (Beckman Coulter, Miami, FL, USA). List mode data were analyzed using Kaluza Analysis 2.1 software (Beckman Coulter, Miami, FL, USA).

[4] = as above; assay type: cell-based, human; conditions: human, MOLT-4 cells, not irradiated, no irradiation, 24 h, read-out: Viable (annexin V/PI negative) MOLT-4 cells, compound alone; for viability at 24 h, 200 µM: representative histogram Fig. 6A
Description: as §3, §4

[5] = MOLT-4, representative histogram Fig. 5A (2 Gy alone 26 %), read-out: Viable (annexin V/PI negative) MOLT-4 cells, compound + 2 Gy
[6] = MOLT-4, representative histogram Fig. 6A (2 Gy alone 27 %), read-out: Viable (annexin V/PI negative) MOLT-4 cells, compound + 2 Gy
[7] = MOLT-4, light or radiation study, annexin V/PI negative cells, read-out: Viability rate of MOLT-4 cells relative to 2 Gy irradiation alone (100%)
[8] = MOLT-4, annexin V/PI negative cells, read-out: Viable MOLT-4 cells relative to 2 Gy radiation alone (100%)
[9] = 100 μM, representative histogram Fig. 5A

| Compound | viability at 48 h, 100 µM [1] | viability at 48 h, 100 µM [2] | viability at 48 h, 100 µM [3] | viability at 100 µM (MOLT-4 cells; [5]) | viability at 200 µM (MOLT-4 cells; [6]) | viability at 100 µM (MOLT-4 cells; [7]) | viability at 200 µM (MOLT-4 cells; [8]) | viability at 2 h, 100 µM [4, 9] | viability at 24 h, 200 µM [4] | Radioprotective effect in MOLT-4 cells (in words) (MOLT-4 cells; 100 μM and 200 μM) | viability at 24 h, 100 µM [4, 9] |
| --- | --- | --- | --- | --- | --- | --- | --- | --- | --- | --- | --- |
| COc1cc([N+](=O)[O-])ccc1OCC(O)CN1CCN(CCO)CC1 (centres unmarked) [Compound 1, 1-(4-(2-Hydroxyethyl)piperazin-1-yl)-3-(2-methoxy-4-nitrophenoxy)propan-2-ol] | 92 ± 8% | 141 ± 42% | 91 ± 2% | 35% | 36% |  |  |  |  |  |  |
| COc1ccc(OCC(O)CN2CCN(CCO)CC2)c([N+](=O)[O-])c1 (centres unmarked) [Compound 2, 1-(4-(2-Hydroxyethyl)piperazin-1-yl)-3-(4-methoxy-2-nitrophenoxy)propan-2-ol] | 90 ± 7% | 103 ± 3% | 98 ± 3% | 35% | 36% |  |  |  |  |  |  |
| O=[N+]([O-])c1ccc(OCC(O)CN2CCN(CCO)CC2)c(F)c1 (centres unmarked) [Compound 3, 1-(4-(2-Hydroxyethyl)piperazin-1-yl)-3-(2-fluoro-4-nitrophenoxy)propan-2-ol] | 84 ± 11% | 94 ± 9% | 92 ± 4% | 31% | 35% |  |  |  |  |  |  |
| OCCN1CCN(CC(O)COc2ccc(F)cc2)CC1 (centres unmarked) [Compound 4, 1-(4-(2-Hydroxyethyl)piperazin-1-yl)-3-(4-fluorophenoxy)propan-2-ol] | 102 ± 16% | 99 ± 3% | 100 ± 3% | 35% | 37% | 143% | 145% |  |  |  |  |
| O=[N+]([O-])c1cc(OCC(O)CN2CCN(CCO)CC2)ccc1Cl (centres unmarked) [Compound 5, 1-(4-(2-Hydroxyethyl)piperazin-1-yl)-3-(4-chloro-3-nitrophenoxy)propan-2-ol] | 84 ± 8% | 95 ± 6% | 85 ± 3% | 32% | 30% |  |  |  |  |  |  |
| OCCN1CCN(CC(O)COc2cccc(Cl)c2)CC1 (centres unmarked) [Compound 6, 1-(4-(2-Hydroxyethyl)piperazin-1-yl)-3-(3-chlorophenoxy)propan-2-ol] | 89 ± 16% | 85 ± 7% | 89 ± 5% | 37% | 39% | 135% | 137% |  |  |  |  |
| NCCCNCCS [WR1065, reference compound] | 3 ± 3% | 20 ± 2% | 1% | 19% | 9% |  |  | 64% | 18% | did not exhibit distinct radioprotective effects |  |
| NCCCNCCSP(=O)(O)O [WR2721, amifostine, reference compound] | 71 ± 21% | 27 ± 3% | 10 ± 12% | 28% | 22% | 106% |  |  | 83% |  | 83% |
